Experiment [1] deals with vancomycin-resistant E. faecium 35682. The experiment is described as follows: Mouse peritonitis-sepsis model. Type of experiment: in vivo. The following applies: E. faecium 35682, ICR mice, single s.c. dose 1 h after infection, doses 50, 100, 150 mg kg^−1, n = 5. The protocol: Six‐week‐old female ICR mice were used in all experiments and housed in a temperature‐controlled room (25 °C) with 12‐h light/dark cycle and 30% relative humidity. Mice were observed twice daily for mortality and morbidity. Abnormal clinical signs were recorded if observed and totally monitored for five days. The detailed methods for the mouse peritonitis‐sepsis model were as follows.
Vancomycin‐resistant E. faecium 35682 was cultured in BHI broth at 37 °C fro 16 h and diluted with 5% type II porcine stomach mucin and 0.9% NaCl. E. faecium cell cultures were diluted to provide a challenge inoculum of 4.0 × 10^9 CFU in 0.5 mL and then administered into each mouse via intraperitoneal injection. 25 mice were randomly grouped into five per cohort (n = 5) and each cohort was given a single dose of either vehicle (20% solutol), aquicidine C4 at 50, 100 or 150 mg/kg and daptomycin at 100 mg kg^−1 with 15 mM CaCl2 1 h after infection via subcutaneous injection.

The test system of experiment [2] is S. aureus USA300. Put plainly: Raising resistant mutants by direct plating. The experiment is classed as cell-based.
For experiment [3], the system named is methicillin-resistant S. aureus USA300. The experiment is described as follows: Neutropenic thigh infection model. The experiment is classed as in vivo, mouse. The following applies: 50 mg kg^−1 s.c. at 2, 10, 18 h, burden at 24 h, n = 8 thighs. As for the experimental part: (§1) Six‐week‐old female ICR mice were used in all experiments and housed in a temperature‐controlled room (25 °C) with 12‐h light/dark cycle and 30% relative humidity. Meropenem‐resistant A. baumannii 1104008 or methicillin‐resistant S. aureus USA300 was cultured in the MH broth containing 50 µg mL^−1 of gentamycin and the MH broth, respectively, at 37 °C and 200 rpm overnight. Then, the strains A. baumannii 1104008 or S. aureus USA300 were washed twice in 0.9% saline and further diluted to verify the bacterial suspension with a challenge inoculum of ≈1.0 × 10^6 CFU in a volume of 0.05 mL per mouse thigh. Mice were rendered neutropenic by receiving 150 and 100 mg kg^−1 of cyclophosphamide via intraperitoneal injection on day‐4 and day‐1 before infection, respectively. For treating the thigh infection caused by A. baumannii 1104008, mice were given 100 µL of vehicle (20% solutol), colistin (25 mg kg^−1, 20% solutol), or aquicidine L (25 mg kg^−1, 20% solutol) at 2, 8, 14, and 20 h after post‐infection via subcutaneous injection. […] All mice were observed after infection for morbidity, and any abnormal signs were recorded. […] The treatment efficacies of aquicidine L or C4 were determined as the bacterial burden reduction in the thighs relative to both the vehicle and colistin‐ or vancomycin‐treated controls. All graphic data were analyzed using the GraphPad Prism software (Prism10).

Experiment [4] concerns S. aureus USA300 MprFT345A. Put plainly: MIC against daptomycin-resistant mutant. The experiment is classed as cell-based. As for the experimental part: (§2) All MIC assays were performed two independent times (n = 2) in 96‐well plates using a broth micro‐dilution method. The lowest concentration of that inhibited visible microbial growth was recorded as the MIC value.
(§3) For most of bacterial strains, overnight cultures were diluted 5000‐fold in LB broth. For E. faecium and S. aureus, overnight cultures were diluted 1000‐ and 10000‐fold in LB broth, respectively. 100 µL of diluted cells was mixed with 100 µL of LB broth containing each peptide ranging from 64 to 0.125 µg mL^−1 at 2‐fold serial dilutions.
(§4) Overnight cultures S. aureus USA300 were diluted 10000‐fold in LB broth, and 100 µL of dilute cell suspension was added to 96‐well plates containing 100 µL serially diluted aquicidine C4, telomycin, and daptomycin (with 15 mM CaCl2). Overnight cultures K. pneumoniae CRKP5452 were diluted 5000‐fold in LB broth, and 100 µL of dilute cell suspension was added to 96‐well plates containing 100 µL serially diluted aquicidine L and colistin. After an incubation of 24 h at 37 °C, the MIC value was determined. […] The MIC value was recorded as described above, and the process was repeated daily for 21 days. Experiments were performed two independent times (n = 2).
(§5) Single‐nucleotide polymorphisms (SNPs) for telomycin‐, daptomycin‐ or colistin‐resistant mutants were identified using SNIPPY by mapping DNBSEQ‐seq reads to the reference genome of S. aureus USA300 or K. pneumoniae CRKP5452.

Experiment [5] relates to S. aureus USA300 Cls2A338stop. Put plainly: MIC against telomycin-resistant mutant. Type of experiment: cell-based. The protocol:
as §2, §3, §4, §5

For experiment [6], the system named is K. pneumoniae CRKP 5452 PhoQL348Q. The experiment is described as follows: MIC against colistin-resistant mutant. The experiment is classed as cell-based. As for the experimental part:
as §2, §3, §4, §5

For experiment [7], the system named is meropenem-resistant A. baumannii 1104008. Put plainly: Neutropenic thigh infection model. Type of experiment: in vivo, mouse. The following applies: A. baumannii 1104008 thigh, 25 mg kg^−1 s.c. at 2, 8, 14, 20 h, burden at 24 h, n = 8 thighs. The protocol: as §1
Experiment [8] has as its system Shigella Castellani LXX. Put plainly: MIC assay (broth micro-dilution). The experiment is classed as cell-based. The following applies: Table S11; LB broth, 37 °C, 16 h, n = 2. A digest of the protocol:
(§6)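 MIC = lowest peptide concentration with no visible growth; LB broth microdilution, n = 2. Inoculum: overnight culture diluted 5000× (S. aureus 10000×). Peptides serially diluted 2-fold, 64–0.125 µg mL^−1 in the broth added to cells.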
(In general: Dilution methods test growth across graded concentrations, often in twofold steps.)

The subject of experiment [9] is E. coli DH5α. Put plainly: Membrane component feeding assay. Type of experiment: cell-based. The following applies: feeding 2 to 128 µg mL^−1, E. coli DH5α, Figure 5e. The protocol:
The effects of bacterial membrane components on aquicidine L's or aquicidine C4's anti‐bacterial activities were evaluated using E. coli DH5α or S. aureus USA300. […] All experiments were done in triplicate (n = 3) and repeated two independent times (n = 2).

Experiment [10] concerns Acinetobacter baumannii P53. The experiment is described as follows: microbe, parasite or virus in culture. The following applies: Table S11; LB broth, 37 °C, 16 h, n = 2. The experiment is classed as cell-based. In outline: as §6

This is an account of results in PMC12677607, “Identification of a Pair of Linear or Cyclic Naturally Inspired Bifunctional Lipopeptide Antibiotics That Overcome Antimicrobial Resistance” (Advanced Science, 2025).

Each structure is given as a SMILES string. Values after ≈ are worked out from the molar mass of the structure shown. Bridge positions count the residues as written; N and C are the ends. Square brackets hold non-standard residues; d marks the D form. Peptide text beside a SMILES is read from it. * marks the point of attachment. Myristoyl = CCCCCCCCCCCCCC(=O)*; Orn = NCCC[C@H](N)C(=O)O; Dab = NCC[C@H](N)C(=O)O; Dap = NC[C@H](N)C(=O)O

`CCCCCCCCCCCCCC(=O)N[C@@H](CN)C(=O)N[C@H](C(=O)N[C@@H](CC(C)C)C(=O)N[C@H]1COC(=O)[C@H](Cc2ccccc2)NC(=O)[C@H](CC(N)=O)NC(=O)[C@H](CCCN)NC(=O)[C@H]([C@@H](C)CC)NC(=O)[C@H](Cc2ccccc2)NC(=O)[C@H](CN)NC(=O)[C@H](CCN)NC1=O)[C@@H](C)O` [synAQU5-C4] (Myristoyl-[Dap]TLS[Dab][Dap]FI[Orn]NF; ester 4-C): in experiment [1], the “minimal dose required for 100% survival” value stood at 100 mg/kg. Moreover, the “increase in MIC of colonies from direct plating on antibiotic-containing solid media” value in experiment [2] was “did not show more than a one‐fold increase in MIC”. Besides, in experiment [3], the “reduction in CFUs compared with the vehicle” value was 3 log10. The “antibacterial activity (MIC) S. aureus USA300 MprFT345A” value in experiment [4] (Figure S127b, daptomycin-resistant mutant) turned out to be 16 µg/mL. In addition, the “increase in MIC against resistant mutant compared to wild type” value in [4] (S. aureus USA300 MprF^T345A vs wild type) and in experiment [5] (S. aureus USA300 Cls2^A338stop vs wild type) was 4 fold each time. Besides, the “antibacterial activity (MIC) S. aureus USA300 Cls2A338stop” value in [5] (Figure S127b, telomycin-resistant mutant) stood at 16 µg/mL.

Regarding `CCCCCCCCCCCCCC(=O)N[C@@H](CN)C(=O)N[C@H](C(=O)N[C@@H](CC(C)C)C(=O)N[C@@H](CO)C(=O)N[C@@H](CCN)C(=O)N[C@@H](CN)C(=O)N[C@@H](Cc1ccccc1)C(=O)N[C@H](C(=O)N[C@@H](CCCN)C(=O)N[C@@H](CC(N)=O)C(=O)N[C@@H](Cc1ccccc1)C(=O)O)[C@@H](C)CC)[C@@H](C)O` [synAQU5-L] (Myristoyl-[Dap]TLS[Dab][Dap]FI[Orn]NF-OH), the “antibacterial activity (MIC) K. pneumoniae CRKP 5452 PhoQL348Q” value in experiment [6] (Figure S127a, colistin-resistant mutant from serial passaging) was 16 µg/mL. Further, the “increase in MIC against resistant mutant compared to wild type” value in [6] (K. pneumoniae CRKP5452 PhoQ^L348Q vs wild type) is 4 fold. Besides, the “reduction in CFUs compared with the vehicle” value in experiment [7] was determined as 3 log10. Further, the “MIC Shigella Castellani LXX” value in experiment [8] came to 8 µg/mL (≈ 5.56 µM). In addition, in experiment [9], the “inhibition of antibacterial activity by LPS and PE” value is “stronger dose‐dependent inhibition”. Further, the “MIC Acinetobacter baumannii P53” value in experiment [10] was 8 µg/mL (≈ 5.56 µM).
